What was measured:
Rat osteoarthritis model = test: Inhibition of disease progression in the rat osteoarthritis model; assay type: in vivo; details: female SD rats, medial meniscectomy and collateral ligament transection; 10 mg/kg orally twice daily for 6 weeks
Method: Rat osteoarthritis model was prepared according to the procedure reported by Meacock et al. (J. Exp. Path. 71, 279-293, 1990), by medial meniscectomy and collateral ligament transection on the right knee of 12 weeks old female SD rats (Charles River Japan). 0.5% methylcellulose or compounds (II-3) or (III-11) (10 mg/kg) were orally administered twice daily from the following day of the surgery for 6 weeks.
On the next day of final administration, tibial plateaus were removed. The surfaces of the tibial plateau were stained with India ink (Kuretake), and then photographed using a digital camera (Nikon). The progressive level of OA lesion was scored using a photographic image thereof.

MMP-9 = MMP-9 (Homo sapiens, UniProt P14780); test: Assay for inhibitory activities on MMPs (fluorogenic peptide substrate), MMP-9; assay type: biochemical
Sequence of MMP-9 (P14780 107-707): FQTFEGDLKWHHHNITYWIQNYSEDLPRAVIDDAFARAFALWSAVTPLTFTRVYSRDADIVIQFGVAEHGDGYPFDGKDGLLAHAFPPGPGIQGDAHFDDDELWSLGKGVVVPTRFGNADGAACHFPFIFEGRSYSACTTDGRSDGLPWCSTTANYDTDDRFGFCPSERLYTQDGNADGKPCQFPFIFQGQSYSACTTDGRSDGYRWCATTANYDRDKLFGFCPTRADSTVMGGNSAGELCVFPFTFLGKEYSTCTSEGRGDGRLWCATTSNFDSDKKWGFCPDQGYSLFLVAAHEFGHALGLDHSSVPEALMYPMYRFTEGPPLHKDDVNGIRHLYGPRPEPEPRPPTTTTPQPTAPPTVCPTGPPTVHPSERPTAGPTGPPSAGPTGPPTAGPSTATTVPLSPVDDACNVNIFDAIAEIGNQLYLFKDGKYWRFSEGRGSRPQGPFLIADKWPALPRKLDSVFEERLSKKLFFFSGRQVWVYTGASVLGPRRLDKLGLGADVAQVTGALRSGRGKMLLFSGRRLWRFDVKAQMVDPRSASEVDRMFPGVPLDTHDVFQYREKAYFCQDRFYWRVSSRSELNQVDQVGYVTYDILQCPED
How it was run: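 ProMMP-9 purified from TPA-stimulated HT1080 cells and activated with TPCK-trypsin, assayed with fluorogenic MOCAc-Pro-Leu-Gly-Leu-A2Pr(DNP)-Ala-Arg-NH2. Percent inhibition from fluorescence of reactions with and without enzyme and inhibitor; IC50 as concentration giving 50% inhibition.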

MMP-2 = target: T1, MMP-2 (Homo sapiens, UniProt P08253); test: Assay for inhibitory activities on MMPs (fluorogenic peptide substrate), MMP-2; assay type: biochemical
T1 sequence (P08253 110-660): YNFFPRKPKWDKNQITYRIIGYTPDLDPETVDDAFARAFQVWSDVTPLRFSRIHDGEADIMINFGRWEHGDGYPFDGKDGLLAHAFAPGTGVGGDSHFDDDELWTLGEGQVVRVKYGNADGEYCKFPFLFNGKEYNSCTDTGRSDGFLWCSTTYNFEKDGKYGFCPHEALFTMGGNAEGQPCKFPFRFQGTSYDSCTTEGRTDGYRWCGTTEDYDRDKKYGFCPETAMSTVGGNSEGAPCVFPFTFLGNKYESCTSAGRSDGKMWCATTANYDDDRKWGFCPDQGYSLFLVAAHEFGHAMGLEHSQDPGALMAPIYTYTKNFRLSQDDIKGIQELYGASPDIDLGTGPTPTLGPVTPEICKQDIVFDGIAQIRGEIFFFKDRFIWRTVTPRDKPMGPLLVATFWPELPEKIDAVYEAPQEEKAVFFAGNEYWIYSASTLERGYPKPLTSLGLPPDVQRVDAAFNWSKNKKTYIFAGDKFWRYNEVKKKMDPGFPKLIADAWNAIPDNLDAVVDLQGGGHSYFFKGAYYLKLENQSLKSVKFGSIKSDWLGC
How it was run: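 Human MMP-2 activity measured with fluorogenic MOCAc-Pro-Leu-Gly-Leu-A2Pr(DNP)-Ala-Arg-NH2 substrate. Percent inhibition derived from fluorescence with and without enzyme and inhibitor, corrected for substrate and inhibitor background. IC50 taken as concentration giving 50% inhibition.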

MMP-12 = target: T2, MMP-12 (Homo sapiens, UniProt P39900); test: Assay for inhibitory activities on MMPs (fluorogenic peptide substrate), MMP-12; assay type: biochemical
T2 construct: In regard to MMP-12, catalytic domain (^100Phe˜^263Gly) was amplified with RT-PCR; His-tag; enterokinase digestion-site
T2 sequence (P39900 100-263): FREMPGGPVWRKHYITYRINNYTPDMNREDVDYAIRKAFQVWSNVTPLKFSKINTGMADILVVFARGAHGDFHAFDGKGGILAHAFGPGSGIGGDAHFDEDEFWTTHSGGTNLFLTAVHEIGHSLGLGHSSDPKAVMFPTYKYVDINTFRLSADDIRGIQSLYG
How it was run: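 Refolded His-tagged human MMP-12 catalytic domain (Phe100–Gly263) expressed in E. coli, assayed with fluorogenic substrate MOCAc-Pro-Leu-Gly-Leu-A2Pr(DNP)-Ala-Arg-NH2. Percent inhibition calculated from fluorescence with and without enzyme and inhibitor, corrected for inhibitor-only and substrate-only blanks; IC50 is concentration giving 50% inhibition.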

MMP-8 = target: T3, MMP-8 (Homo sapiens, UniProt P22894); test: Assay for inhibitory activities on MMPs (fluorogenic peptide substrate), MMP-8; assay type: biochemical
T3 construct: In regard to MMP-8, catalytic domain (^99Phe˜^262Gly) was amplified with PCR; His-tag; enterokinase digestion-site
T3 sequence (P22894 99-262): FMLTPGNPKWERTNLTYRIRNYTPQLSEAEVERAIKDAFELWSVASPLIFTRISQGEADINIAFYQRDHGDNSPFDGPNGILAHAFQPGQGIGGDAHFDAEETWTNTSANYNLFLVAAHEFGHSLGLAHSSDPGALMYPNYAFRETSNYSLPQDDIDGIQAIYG
How it was run: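 Human MMP-8 catalytic domain (Phe99–Gly262), His-tagged, E. coli-expressed, urea-solubilised, refolded. Fluorogenic substrate MOCAc-Pro-Leu-Gly-Leu-A2Pr(DNP)-Ala-Arg-NH2; fluorescence read with enzyme/inhibitor, substrate/inhibitor, enzyme-only and substrate-only wells. % inhibition = {1-(A−B)/(C−D)}×100; IC50 is concentration giving 50% inhibition.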

MMP-13 = target: T4, MMP-13 (Homo sapiens, UniProt P45452); test: Assay for inhibitory activities on MMPs (fluorogenic peptide substrate), MMP-13; assay type: biochemical
T4 construct: catalytic domain (^104Tyr˜^267Gly) was amplified with RT-PCR; His-tag; enterokinase digestion-site
How it was run: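 Catalytic domain cloned from IL-1/TNF-stimulated SW1353 cells, His-tagged and expressed in E. coli, then refolded from urea. Activity read by fluorescence on the MOCAc peptide substrate. IC50 taken from % inhibition = {1-(A-B)/(C-D)}×100, with blanks lacking enzyme and/or inhibitor.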

| SMILES | IC50 (MMP-9) | IC50 (MMP-2) | IC50 (MMP-12) | IC50 (MMP-8) | IC50 (MMP-13) | inhibitory activities (progressive level of OA lesion, scored) (Rat osteoarthritis model) |
| --- | --- | --- | --- | --- | --- | --- |
| O=C(O)[C@@H](Cc1ccccc1)NS(=O)(=O)c1ccc(-c2ccc(C#Cc3ccc4ccccc4c3)cc2)cc1 [III-11] | > 10000 nM | 163 nM | 2000 nM | 128 nM | – | 77.2% |
| CC(C)C[C@@H](NS(=O)(=O)c1ccc(-c2ccc(NC(=O)c3ccc4ccccc4c3)cc2)cc1)C(=O)O [VI-41] | > 10000 nM | > 10000 nM | > 10000 nM | > 10000 nM | 178 nM | – |
| C[C@@H](NS(=O)(=O)c1ccc(-c2ccc(NC(=O)c3ccc(OC(F)(F)F)cc3)cc2)cc1)C(=O)O [VI-21] | > 10000 nM | 105 nM | 522 nM | > 10000 nM | 36.8 nM | – |
| O=C(Nc1ccc(-c2ccc(S(=O)(=O)N[C@H](Cc3ccccc3)C(=O)O)cc2)cc1)c1ccc(F)cc1 [VI-6] | > 10000 nM | 235 nM | > 10000 nM | > 10000 nM | 39.4 nM | – |
| O=C(O)[C@H](Cc1ccccc1)NS(=O)(=O)c1ccc(-c2ccc(C#Cc3ccc4ccccc4c3)cc2)cc1 [III-12] | > 10000 nM | 8990 nM | 888 nM | 270 nM | 35.7 nM | – |
| CSCC[C@H](NS(=O)(=O)c1ccc(-c2ccc(C#Cc3ccc4ccccc4c3)cc2)cc1)C(=O)O [III-10] | > 10000 nM | 374 nM | 29.7 nM | 25.9 nM | 2.86 nM | – |
| CCC(C)[C@H](NS(=O)(=O)c1ccc(-c2ccc(C#Cc3ccc4cc(OC)ccc4c3)cc2)cc1)C(=O)O (stereo partly shown) [III-23] | > 10000 nM | 602 nM | 50.7 nM | 41.6 nM | 16.3 nM | – |
| CC(C)C[C@H](NS(=O)(=O)c1ccc(-c2ccc(C#Cc3ccc4ccccc4c3)cc2)cc1)C(=O)O [III-7] | > 10000 nM | 327 nM | 20.2 nM | 13.1 nM | 4.32 nM | – |
| O=C(Nc1ccc(-c2ccc(S(=O)(=O)N[C@H](Cc3ccccc3)C(=O)O)cc2)cc1)c1ccccc1 [VI-2] | > 10000 nM | 371 nM | > 10000 nM | > 10000 nM | 73.6 nM | – |
| O=C(Nc1ccc(-c2ccc(S(=O)(=O)N[C@H](Cc3ccccc3)C(=O)O)cc2)cc1)c1ccc(F)c(F)c1 [VI-11] | > 10000 nM | 139 nM | 9010 nM | > 10000 nM | 38.8 nM | – |

Further lines, with some results ahead:

| IC50 (MMP-9) | IC50 (MMP-2) | IC50 (MMP-12) | IC50 (MMP-8) | IC50 (MMP-13) | SMILES | inhibitory activities (progressive level of OA lesion, scored) (Rat osteoarthritis model) |
| --- | --- | --- | --- | --- | --- | --- |
| > 10000 nM | 664 nM | > 10000 nM | 5400 nM | 81.1 nM | CC(C)[C@@H](NS(=O)(=O)c1ccc(-c2ccc(NC(=O)c3ccc4ccccc4c3)cc2)cc1)C(=O)O [VI-39] | – |
| > 10000 nM | > 10000 nM | > 10000 nM | > 10000 nM | 61.3 nM | COc1ccc2cc(C(=O)Nc3ccc(-c4ccc(S(=O)(=O)N[C@H](Cc5ccccc5)C(=O)O)cc4)cc3)ccc2c1 [VI-45] | – |
| > 10000 nM | 1050 nM | 839 nM | 723 nM | 27.2 nM | COc1ccc(C(=O)Nc2ccc(-c3ccc(S(=O)(=O)N[C@H](Cc4ccccc4)C(=O)O)cc3)cc2)cc1OC [VI-8] | – |
| > 10000 nM | > 10000 nM | 70.9 nM | 56.3 nM | 7.86 nM | C[C@H](NS(=O)(=O)c1ccc(-c2ccc(C#Cc3ccc4ccccc4c3)cc2)cc1)C(=O)O [III-3] | – |

Reference: patent publication US20080119513A1, “Sulfonamide Derivative Selectively Inhibiting Mmp-13” (priority 2004, published 2008)
